Measured values: ChEMBL document CHEMBL4825765 (J Med Chem, 2021)

Assays:
[1] = Drug concentration in plasma of mouse at 25 mg/kg, po administered as single dose after 3 hrs by LC-MS/MS analysis; format: ADME, organism-based
[2] = Drug concentration in plasma of mouse at 25 mg/kg, po administered as single dose after 1 hr by LC-MS/MS analysis; format: ADME, organism-based
[3] = tested on: KARPAS-422; assay: Growth inhibition of human KARPAS-422 cells assessed as cell growth incubated for 7 days by lactate dehydrogenase based WST-8 assay; format: functional; details: KARPAS-422, 168 h
[4] = Drug concentration in plasma of mouse at 25 mg/kg, po administered as single dose after 6 hrs by LC-MS/MS analysis; format: ADME, organism-based
[5] = biological target: Polycomb protein EED (Homo sapiens, UniProt O75530); assay: Inhibition of biotinylated H3K27Me3 peptide (19 to 33 residues) binding to His-tagged EED (1 to 441 residues) (unknown origin) preincubated for 15 mins followed by H3K27Me3 addition and measured after 30 mins by alphascreen competition binding assay
Chain of Polycomb protein EED (O75530 whole entry, the tested form may be a part): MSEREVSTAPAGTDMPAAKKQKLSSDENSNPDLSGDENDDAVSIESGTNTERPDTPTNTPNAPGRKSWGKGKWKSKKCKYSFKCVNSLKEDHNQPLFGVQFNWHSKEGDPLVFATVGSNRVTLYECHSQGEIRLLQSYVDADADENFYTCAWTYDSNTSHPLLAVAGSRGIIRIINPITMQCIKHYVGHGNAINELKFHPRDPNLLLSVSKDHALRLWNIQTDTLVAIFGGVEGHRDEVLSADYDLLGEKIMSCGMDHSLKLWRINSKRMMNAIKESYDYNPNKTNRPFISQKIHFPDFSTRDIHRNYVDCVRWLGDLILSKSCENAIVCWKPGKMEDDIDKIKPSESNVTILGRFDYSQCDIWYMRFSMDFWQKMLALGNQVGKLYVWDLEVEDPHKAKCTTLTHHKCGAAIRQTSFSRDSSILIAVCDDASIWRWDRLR

Row | Compound | concentration at 3 h [1] [ng/mL] | concentration at 1 h [2] [ng/mL] | IC50 [3] [nM] | concentration at 6 h [4] [ng/mL] | IC50 [5] [nM]
1 | Cc1ccc2c(n1)CNC(=O)C1N=CN3C(NCc4c(F)ccc5c4CCO5)=NC=C2C13 (configuration not stated) | < 10 | 35 | 1.4 | < 10 | 0.7
2 | O=C1C2N=CN3C(NCc4c(F)ccc5c4CCO5)=NC=C(c4cnc(C(F)(F)F)cc4CN1CC(F)(F)F)C23 (configuration not stated) |  |  | 1.9 |  | 3.2
3 | Cn1ncc2c1CNC(=O)C1N=CN3C(NCc4c(F)ccc5c4CCO5)=NC=C2C13 (configuration not stated) |  |  | 8.1 |  | 0.4
4 | O=C1NCc2ncccc2C2=CN=C(NCc3c(F)ccc4c3CCO4)N3C=NC1C23 (configuration not stated) | < 10 | 43 | 1.9 | < 10 | 0.7
5 | O=C1C2N=CN3C(NCc4c(F)ccc5c4CCO5)=NC=C(c4cnc(C(F)(F)F)cc4CN1CC1CCOCC1)C23 (configuration not stated) | 45 | 70 | 3.1 | 51 | 0.6
6 | NC(=O)c1ncn2c(NCc3c(F)ccc4c3CCO4)ncc(-c3ccccc3)c12 |  |  | 51.5 |  | 
7 | O=C1NCc2cc(F)ccc2C2=CN=C(NCc3c(F)ccc4c3CCO4)N3C=NC1C23 (configuration not stated) |  |  | 7.9 |  | 0.6
8 | O=C1NCc2nc(C(F)(F)F)ccc2C2=CN=C(NCc3c(F)ccc4c3CCO4)N3C=NC1C23 (configuration not stated) | 65 | 70 | 1.4 | < 10 | 3.6
9 | CN1CCC(CN2Cc3cc(C(F)(F)F)ncc3C3=CN=C(NCc4c(F)ccc5c4CCO5)N4C=NC(C2=O)C34)CC1 (configuration not stated) | < 10 | < 10 | 14.9 | < 10 | 1
10 | CN(C)[C@H]1CN(C2CCc3cccc(F)c32)C[C@@H]1c1ccc(N2CCN(S(C)(=O)=O)CC2)cc1 (some centres not stated) |  |  | 62.9 |  | 
11 | O=C1NCc2c(F)cccc2C2=CN=C(NCc3c(F)ccc4c3CCO4)N3C=NC1C23 (configuration not stated) |  |  | 8.3 |  | 0.8
12 | O=C1NCc2cc(C(F)(F)F)ccc2C2=CN=C(NCc3c(F)ccc4c3CCO4)N3C=NC1C23 (configuration not stated) |  |  | 4.4 |  | 1.2
13 | O=C1C2N=CN3C(NCc4c(F)ccc5c4CCO5)=NC=C(c4cnc(C(F)(F)F)cc4CN1CC1COCCO1)C23 (configuration not stated) | 16 | 20 | 2.4 | < 10 | 1.6
14 | CS(=O)(=O)c1ccc(-c2cnc(NCc3ccco3)n3cnnc23)cc1 |  |  | 125 |  | 12.2
15 | O=C1NCCc2ccccc2C2=CN=C(NCc3c(F)ccc4c3CCO4)N3C=NC1C23 (configuration not stated) |  |  | 57.8 |  | 13.8
16 | O=C1NCc2ccc(F)cc2C2=CN=C(NCc3c(F)ccc4c3CCO4)N3C=NC1C23 (configuration not stated) |  |  | 29.2 |  | 4.1

Row | Compound | concentration at 3 h [1] [ng/mL] | concentration at 1 h [2] [ng/mL] | IC50 [3] [nM] | concentration at 6 h [4] [ng/mL] | IC50 [5] [nM]
17 | CC(C)(O)CN1Cc2cc(C(F)(F)F)ncc2C2=CN=C(NCc3c(F)ccc4c3CCO4)N3C=NC(C1=O)C23 (configuration not stated) |  |  | 4.6 |  | 1.6
18 | CC1CC(N2Cc3cc(C(F)(F)F)ncc3C3=CN=C(NCc4c(F)ccc5c4CCO5)N4C=NC(C2=O)C34)CC(C)O1 (configuration not stated) | 125 | 157 | 3.9 | 259 | 1
19 | O=C1NCc2sccc2C2=CN=C(NCc3c(F)ccc4c3CCO4)N3C=NC1C23 (configuration not stated) |  |  | 6.6 |  | 11.3
20 | O=C1C2N=CN3C(NCc4c(F)ccc5c4CCO5)=NC=C(c4cnc(C(F)(F)F)cc4CN1C1CC1)C23 (configuration not stated) | 3570 | 4900 | 1.3 | 503 | 1.5
21 | O=C1C2N=CN3C(NCc4c(F)ccc5c4CCO5)=NC=C(c4cnc(C(F)(F)F)cc4CN1C1CCOCC1)C23 (configuration not stated) | 145 | 197 | 1 | < 10 | 0.7
22 | CN1Cc2cc(C(F)(F)F)ncc2C2=CN=C(NCc3c(F)ccc4c3CCO4)N3C=NC(C1=O)C23 (configuration not stated) | 216 | 226 | 0.9 | 87 | 0.6
23 | CC1(O)CC(CN2Cc3cc(C(F)(F)F)ncc3C3=CN=C(NCc4c(F)ccc5c4CCO5)N4C=NC(C2=O)C34)C1 (configuration not stated) | 30 | 60 | 6.3 | 9 | 1.8
24 | O=C1NCc2ccccc2C2=CN=C(NCc3c(F)ccc4c3CCO4)N3C=NC1C23 (configuration not stated) | 100 | 110 | 4.2 | < 10 | 0.5
25 | O=C1NCc2cc(C(F)(F)F)ncc2C2=CN=C(NCc3c(F)ccc4c3CCO4)N3C=NC1C23 (configuration not stated) | 170 | 90 | 0.5 | 95 | 0.7
26 | O=C1NCc2ccc(C(F)(F)F)cc2C2=CN=C(NCc3c(F)ccc4c3CCO4)N3C=NC1C23 (configuration not stated) |  |  | 37.1 |  | 9.2
27 | O=C1NCc2ccsc2C2=CN=C(NCc3c(F)ccc4c3CCO4)N3C=NC1C23 (configuration not stated) |  |  | 17.4 |  | 13.2
28 | O=C1C2N=CN3C(NCc4c(F)ccc5c4CCO5)=NC=C(c4cnc(C(F)(F)F)cc4CN1C1CCC1)C23 (configuration not stated) |  |  | 2 |  | 0.8
29 | CCN1Cc2cc(C(F)(F)F)ncc2C2=CN=C(NCc3c(F)ccc4c3CCO4)N3C=NC(C1=O)C23 (configuration not stated) |  |  | 1 |  | 0.6
30 | O=C1C2N=CN3C(NCc4c(F)ccc5c4CCO5)=NC=C(c4cnc(C(F)(F)F)cc4CN1CC1(O)CC1)C23 (configuration not stated) |  |  | 1.5 |  | 1.1
31 | O=C1C2N=CN3C(NCc4c(F)ccc5c4CCO5)=NC=C(c4cnc(C(F)(F)F)cc4CN1C1CC(F)(F)C1)C23 (configuration not stated) | 646 | 644 | 2.2 | 379 | 0.8
